Test results reported in PubChem BioAssay (NCI).
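Step 1: Grow cells in 96-well plates. Step 2: Expose to compound for 48 hours at 5 concentrations. Step 3: Interpolate endpoints linearly; if unreached, use highest concentration. At the GI50, growth is halved. Definition used: TGI = concentration required for complete inhibition of growth.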

Columns and labels:
Test in all cases: DTP human tumour cell line panel, 48 h
BT-549 breast = system: BT-549 breast
HCC-2998 colon = system: HCC-2998 colon
HS 578T breast = system: HS 578T breast
LOX IMVI melanoma = system: LOX IMVI melanoma
MCF7 breast = system: MCF7 breast
NCI/ADR-RES ovarian = system: NCI/ADR-RES ovarian
OVCAR-4 ovarian = system: OVCAR-4 ovarian
PC-3 prostate = system: PC-3 prostate
SK-MEL-2 melanoma = system: SK-MEL-2 melanoma
UO-31 renal = system: UO-31 renal

Row | Compound | TGI (BT-549 breast) | TGI (HCC-2998 colon) | TGI (HS 578T breast) | TGI (LOX IMVI melanoma) | TGI (MCF7 breast) | TGI (NCI/ADR-RES ovarian) | TGI (OVCAR-4 ovarian) | TGI (PC-3 prostate) | TGI (SK-MEL-2 melanoma) | TGI (UO-31 renal) | GI50 (BT-549 breast) | GI50 (HCC-2998 colon) | GI50 (HS 578T breast) | GI50 (LOX IMVI melanoma) | GI50 (MCF7 breast) | GI50 (NCI/ADR-RES ovarian) | GI50 (OVCAR-4 ovarian) | GI50 (PC-3 prostate) | GI50 (SK-MEL-2 melanoma) | GI50 (UO-31 renal)
1 | C=C(c1ccc2nc(NC(=O)OC)[nH]c2c1)c1cccs1 | > 100 µM | 0.86 µM | > 100 µM | > 52.6 µM | > 100 µM | 0.87 µM | > 100 µM | > 100 µM | > 100 µM | > 62.4 µM | – | – | – | – | – | – | – | – | – | –
2 | CCCNNC(=O)/C=C/c1ccc(CNCCc2c(C)[nH]c3ccccc23)cc1 | 4.71 µM | 0.115 µM | 0.621 µM | 0.0797 µM | 3.6 µM | 2.29 µM | 6.45 µM | 3.74 µM | 3.68 µM | 0.601 µM | 0.28 µM | 0.0449 µM | 0.0437 µM | 0.0368 µM | 0.0252 µM | 0.169 µM | 0.0525 µM | 0.0175 µM | 0.0342 µM | 0.0593 µM
